Test results from ChEMBL document CHEMBL1201862, “PubChem BioAssay data set” (2004).
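Grown in 96-well plates, cells were treated for 48 hours with each compound at five concentrations. Insufficient inhibition: endpoint recorded as highest concentration tested. GI50 is the concentration that inhibits growth by half.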 Calls of active or inactive are those of the source. Rule as the data show it: active = GI50 up to about 1.1 µM and inactive = higher.

How the values were obtained:
Test in all cases: NCI-60 cell line screen, 48 h
[1] = tested on: K562
[2] = tested on: HL-60
[3] = tested on: TK-10
[4] = tested on: SN12C
[5] = tested on: UACC-257
[6] = tested on: HCT-15
[7] = tested on: NCI/ADR-RES
[8] = tested on: CCRF-CEM
[9] = tested on: BT-549
[10] = tested on: ACHN
[11] = tested on: U-251
[12] = tested on: MDA-MB-435
[13] = tested on: EKVX
[14] = tested on: IGROV-1
[15] = tested on: HT-29
[16] = tested on: M14
[17] = tested on: HOP-92
[18] = tested on: UACC-62
[19] = tested on: DU-145
[20] = tested on: NCI-H226
[21] = tested on: HOP-62
[22] = tested on: Hs-578T
[23] = tested on: RPMI-8226
[24] = tested on: MOLT-4
[25] = tested on: SK-OV-3
[26] = tested on: NCI-H460
[27] = tested on: SW-620
[28] = tested on: KM12
[29] = tested on: HCT-116
[30] = tested on: NCI-H23
[31] = tested on: OVCAR-4
[32] = tested on: SF-295
[33] = tested on: RXF 393
[34] = tested on: COLO 205
[35] = tested on: SK-MEL-28
[36] = tested on: SNB-75
[37] = tested on: SF-268
[38] = tested on: MDA-MB-231
[39] = tested on: Malme-3M
[40] = tested on: T47D
[41] = tested on: PC-3
[42] = tested on: OVCAR-3
[43] = tested on: 786-0
[44] = tested on: A549
[45] = tested on: NCI-H522
[46] = tested on: SK-MEL-5
[47] = tested on: SF-539
[48] = tested on: HCC 2998
[49] = tested on: SR
[50] = tested on: MCF7
[51] = tested on: OVCAR-5
[52] = tested on: MDA-N
[53] = tested on: SNB-19
[54] = tested on: OVCAR-8
[55] = tested on: LOX IMVI
[56] = tested on: CAKI-1
[57] = tested on: A498
[58] = tested on: SK-MEL-2
[59] = tested on: UO-31

CCn1c(-c2ccc(F)cc2)nc2c1C(=O)c1ccccc1C2=O
GI50 [1]: > 100 µM (inactive)
GI50 [2]: > 100 µM (inactive)
GI50 [3]: > 100 µM (inactive)
GI50 [4]: > 100 µM (inactive)
GI50 [5]: > 100 µM (inactive)
GI50 [6]: > 100 µM
GI50 [7]: > 100 µM (inactive)
GI50 [8]: > 100 µM (inactive)
GI50 [9]: > 100 µM (inactive)
GI50 [10]: > 100 µM (inactive)
GI50 [11]: > 100 µM (inactive)
GI50 [12]: > 100 µM (inactive)
GI50 [13]: > 100 µM (inactive)
GI50 [14]: > 100 µM (inactive)
GI50 [15]: 75.5 µM (inactive)
GI50 [16]: 71 µM (inactive)
GI50 [17]: > 100 µM (inactive)
GI50 [18]: > 100 µM (inactive)
GI50 [19]: > 100 µM (inactive)
GI50 [20]: 91 µM (inactive)
GI50 [21]: > 100 µM (inactive)
GI50 [22]: > 100 µM (inactive)
GI50 [23]: > 100 µM (inactive)
GI50 [24]: > 100 µM (inactive)
GI50 [25]: 20.7 µM (inactive)
GI50 [26]: > 100 µM (inactive)
GI50 [27]: > 100 µM (inactive)
GI50 [28]: > 100 µM (inactive)
GI50 [29]: > 100 µM (inactive)
GI50 [30]: > 100 µM (inactive)
GI50 [31]: > 100 µM (inactive)
GI50 [32]: > 100 µM (inactive)
GI50 [33]: 54 µM (inactive)
GI50 [34]: > 100 µM (inactive)
GI50 [35]: > 100 µM (inactive)
GI50 [36]: > 100 µM (inactive)
GI50 [37]: > 100 µM (inactive)
GI50 [38]: > 100 µM (inactive)
GI50 [39]: 45.1 µM (inactive)
GI50 [40]: > 100 µM (inactive)
GI50 [41]: > 100 µM (inactive)
GI50 [42]: 33.8 µM (inactive)
GI50 [43]: > 100 µM (inactive)
GI50 [44]: > 100 µM (inactive)
GI50 [45]: > 100 µM (inactive)
GI50 [46]: > 100 µM (inactive)
GI50 [47]: > 100 µM (inactive)
GI50 [48]: > 100 µM (inactive)
GI50 [49]: > 100 µM (inactive)
GI50 [50]: > 100 µM (inactive)
GI50 [51]: > 100 µM (inactive)
GI50 [52]: > 100 µM (inactive)
GI50 [53]: > 100 µM (inactive)
GI50 [54]: > 100 µM (inactive)

CCOC(=O)Cc1c(C)c2cc(C(=O)c3ccccc3)c(O)cc2oc1=O
GI50 [1]: 24.7 µM (inactive)
GI50 [2]: 24.4 µM (inactive)
GI50 [3]: 43.4 µM (inactive)
GI50 [4]: 31.6 µM (inactive)
GI50 [5]: 28.7 µM (inactive)
GI50 [6]: 29.4 µM
GI50 [7]: 26.1 µM (inactive)
GI50 [55]: 30.3 µM (inactive)
GI50 [8]: 31.1 µM (inactive)
GI50 [9]: 17.8 µM (inactive)
GI50 [10]: 29.3 µM (inactive)
GI50 [11]: 20.8 µM (inactive)
GI50 [12]: 33 µM (inactive)
GI50 [13]: 25.5 µM (inactive)
GI50 [14]: 39.6 µM (inactive)
GI50 [15]: 39.2 µM (inactive)
GI50 [16]: 34.3 µM (inactive)
GI50 [17]: 21.6 µM (inactive)
GI50 [18]: 35.3 µM (inactive)
GI50 [19]: 30.8 µM (inactive)
GI50 [20]: 27.3 µM (inactive)
GI50 [21]: 35.6 µM (inactive)
GI50 [22]: 26.2 µM (inactive)
GI50 [23]: 29.3 µM (inactive)
GI50 [24]: 36.1 µM (inactive)
GI50 [26]: 33.3 µM (inactive)
GI50 [27]: 45.1 µM (inactive)
GI50 [29]: 33.3 µM (inactive)
GI50 [30]: 19.3 µM (inactive)
GI50 [31]: 31.8 µM (inactive)
GI50 [32]: 34.8 µM (inactive)
GI50 [33]: 41.1 µM (inactive)
GI50 [34]: 18.5 µM (inactive)
GI50 [56]: 30.6 µM (inactive)
GI50 [35]: 34.2 µM (inactive)
GI50 [36]: 30.4 µM (inactive)
GI50 [37]: 24.9 µM (inactive)
GI50 [38]: 23.8 µM (inactive)
GI50 [39]: 25.4 µM (inactive)
GI50 [57]: 25.3 µM (inactive)
GI50 [40]: 28.2 µM (inactive)
GI50 [41]: 24.8 µM (inactive)
GI50 [42]: 17.8 µM (inactive)
GI50 [43]: 39.8 µM (inactive)
GI50 [44]: 25.8 µM (inactive)
GI50 [45]: 27 µM (inactive)
GI50 [58]: 14.9 µM (inactive)
GI50 [46]: 17.6 µM (inactive)
GI50 [47]: 20.4 µM (inactive)
GI50 [48]: 32.6 µM (inactive)
GI50 [50]: 22.4 µM (inactive)
GI50 [51]: 26 µM (inactive)
GI50 [52]: 33.3 µM (inactive)
GI50 [53]: 33.7 µM (inactive)
GI50 [54]: 34.1 µM (inactive)

CCOC(=O)C1=CC(C)(C(=O)OCC)Nc2c(nc(SC)[nH]c2=O)N1 (stereo not given)
GI50 [1]: > 10 µM (inactive)
GI50 [3]: > 10 µM (inactive)
GI50 [4]: > 10 µM (inactive)
GI50 [5]: > 10 µM (inactive)
GI50 [6]: > 10 µM
GI50 [7]: > 10 µM (inactive)
GI50 [55]: > 10 µM (inactive)
GI50 [8]: > 10 µM (inactive)
GI50 [9]: > 10 µM (inactive)
GI50 [10]: > 10 µM (inactive)
GI50 [11]: > 10 µM (inactive)
GI50 [12]: > 10 µM (inactive)
GI50 [13]: > 10 µM (inactive)
GI50 [14]: > 10 µM (inactive)
GI50 [15]: > 10 µM (inactive)
GI50 [16]: > 10 µM (inactive)
GI50 [17]: > 10 µM (inactive)
GI50 [19]: > 10 µM (inactive)
GI50 [20]: > 10 µM (inactive)
GI50 [21]: > 10 µM (inactive)
GI50 [22]: > 10 µM (inactive)
GI50 [23]: > 10 µM (inactive)
GI50 [24]: > 10 µM (inactive)
GI50 [25]: > 10 µM (inactive)
GI50 [26]: > 10 µM (inactive)
GI50 [27]: > 10 µM (inactive)
GI50 [28]: > 10 µM (inactive)
GI50 [29]: > 10 µM (inactive)
GI50 [30]: > 10 µM (inactive)
GI50 [31]: > 10 µM (inactive)
GI50 [32]: > 10 µM (inactive)
GI50 [33]: > 10 µM (inactive)
GI50 [34]: > 10 µM (inactive)
GI50 [56]: > 10 µM (inactive)
GI50 [35]: > 10 µM (inactive)
GI50 [36]: > 10 µM (inactive)
GI50 [37]: > 10 µM (inactive)
GI50 [38]: > 10 µM (inactive)
GI50 [39]: > 10 µM (inactive)
GI50 [57]: > 10 µM (inactive)
GI50 [40]: > 10 µM (inactive)
GI50 [41]: > 10 µM (inactive)
GI50 [42]: > 10 µM (inactive)
GI50 [43]: > 10 µM (inactive)
GI50 [44]: > 10 µM (inactive)
GI50 [45]: > 10 µM (inactive)
GI50 [58]: > 10 µM (inactive)
GI50 [46]: > 10 µM (inactive)
GI50 [47]: > 10 µM (inactive)
GI50 [48]: > 10 µM (inactive)
GI50 [50]: > 10 µM (inactive)
GI50 [51]: > 10 µM (inactive)
GI50 [52]: > 10 µM (inactive)
GI50 [59]: > 10 µM (inactive)
GI50 [53]: > 10 µM (inactive)
GI50 [54]: > 10 µM (inactive)
